Data reported in patent US20210196738A1, “PHARMACEUTICAL COMPOSITION COMPRISING A COLLOIDAL DISPERSION AND A THERAPEUTIC AGENT AND METHODS AND USES THEREOF” (priority 2017, published 2021).
“Also recorded” adds a separate entry of the source. Where two headings read alike, the source gives them in different places.

Experiments:
[1] = tested on: E. coli K-12 MG1655 (DA4201); assay: AgSol-antibiotic synergy screening assay / MIC (Ag/Antibiotic screen); type: cell-based, Escherichia coli; settings: for Antibiotic MIC, NB + AgSol1000: antibiotic in combination with AgSol1000 at ¼ × MIC silver; for Fold change (antibiotic MIC, NB vs NB + AgSol1000): dash = MIC unchanged; for fold increase in effect with AgSol vs antibiotic alone: Table 6, E. coli
Description: (§1) The MIC (Minimal Inhibitory Concentration) of a bacterium to a certain antimicrobial agent gives a quantitative estimate of the susceptibility. MIC is defined as the lowest concentration of antimicrobial agent required to inhibit growth of the organism. The principle is simple: Agar plates, tubes or microtitre trays with two-fold dilutions of antibiotics are inoculated with a standardized inoculum of the bacteria and incubated under standardized conditions following NCCLS guidelines. The next day, the MIC is recorded as the lowest concentration of antimicrobial agent with no visible growth. The MIC informs you about the degree of resistance and might give you important information about the resistance mechanism and the resistance genes involved. MIC-determination performed as agar dilution is regarded as the gold standard for susceptibility testing (Source: Global Salm-Surv—A global Salmonella surveillance and laboratory support project of the World Health Organization (4th Ed. April 2002, modified November 2010))
(§2) The Minimum Inhibitory Concentration (MIC) of nanosilver (silver) was determined by two-fold dilution series in NaCl free Nutrient Broth (Sigma-Aldrich) in 15 ml screw cap tubes. The tubes were incubated in the dark over night at 37° C. without shaking. The MIC was determined as the lowest concentration of nanosilver (silver) at which no visible growth was observed.
(§3) Antibiotic stock solutions were serially diluted in 2-fold steps in pre-warmed (37° C.) nutrient broth (NB) to prepare an antibiotic concentration gradient above and below the minimal inhibitory concentration (MIC) of antibiotic (Table 4). 50 μl of prepared dilutions were aliquoted into a 96-well round bottom plate (Nunc, Thermo Fisher) for the screening assay.
(§4) Silver formulation (AgSol1000 (particles with 19 Ag per silica particle), AgSol300 (particles with 6 Ag per silica particle, AgNO3), aluminum coated silica beads (159/500 (silica particles with aluminium silicate coating)) and uncoated silica beads (15/500) were diluted in pre-warmed (37° C.) NB. Bindzil®15/500 is an unmodified silica sol, whereas Bindzil®159/500 is a aluminosilicate modified silica sol. Bindzil® is sold by Akzo Nobel AB.
(§5) 40 μl of the prepared dilutions were added to the 96-well plate containing antibiotic gradient to reach the final silver concentration of ¼×MICAgSol (silver) (specific for the microorganism used) (Table 5).
(§6) Overnight (16-20 h) cultures of 3 biological replicates of the following microorganisms E. coli K-12 MG1655 (DA4201), E. coli K-12 MG1655 rpsL K42N (DA49828), Pseudomonas aeruginosa PAO1 (DA6215) or Staphylococcus aureus USA300 JE2 (DA28823) were grown in NB till saturation (37° C. incubator with 190 rpm shaking). Cultures were diluted in NB to 10^7 CFU/ml and 10 μl of the dilution were added to the 96-well plate containing antibiotic gradient and silver formulations or the bead controls to reach the final concentration of 10^5 CFU/well in 100 μl total volume per well. 3 technical replicates (3 wells) of specific antibiotic concentration in combination with silver and microorganism were used. A control plate containing bacterial cells mixed with only antibiotic gradient was always included too.
(§7) The prepared plate was incubated in 37° C. incubator without shaking in the dark for 16-20 h and the optical density (OD620) of each well was measured in plate reader Multiscan FC (Thermo Fisher).

[2] = tested on: Pseudomonas aeruginosa PAO1 (DA6215); assay: AgSol-antibiotic synergy screening assay / MIC; type: cell-based
Description: as §1, §2, §3, §4, §5, §6, §7

[3] = tested on: Pseudomonas aeruginosa PAO1 (DA6215); assay: Time-kill assay; type: cell-based; settings: for time-kill: effect of gentamicin in combination with AgSol: 0-48 h, FIGS. 8A, 8B
Description: (§8) Antibiotic stock solutions were diluted in pre-warmed (37° C.) nutrient broth (NB) to prepare 2×MIC concentration (Table 4) of antibiotic in the final volume of 2 ml in 15 ml tubes (Sarstedt).
(§9) Silver formulation (AgSol1000, AgNO3) was diluted in pre-warmed (37° C.) NB and added to the tube containing antibiotic to reach the final silver concentration of ¼×MICAgsol (silver) (Table 5) in the final volume of 2 ml.
(§10) Overnight (16-20 h) cultures of 2 biological replicates of the following microorganisms Pseudomonas aeruginosa PAO1 (DA6215) or Staphylococcus aureus USA300 JE2 (DA28823) were grown in NB till saturation (37° C. incubator with 190 rpm shaking). Cultures were diluted (1/100) in pre-warmed (37° C.) NB and incubated in 37° C. incubator with 190 rpm shaking until they reached exponential growth phase (OD600˜0.2). Final concentration of approximately 10^6 CFU/ml of exponentially dividing cells was used in the total volume of 2 ml mixture of antibiotic and silver formulation. Control tubes with only bacterial cells or bacterial cells mixed with only antibiotic or only silver formulation were also used.
(§11) All tubes were incubated in 37° C. water bath with 150 rpm shaking and 100 μl samples were taken out at pre-determined time points for viable counts (2 technical replicates). CFU counts were normalized to the 0 h sample and were plotted as a function of time (h).
(§12) A “Time Kill” test was performed with S. aureus USA3000 JE2 and Fusidic acid (FUS) and Mupirocin (MUP) and with P. aeruginosa (PAO1) with gentamicin (GEN). From a stock solution with bacteria with controlled growth at 37° C. during 16 h, […] were prepared: • Bacterial cells • Bacterial cells+AgSol • Bacterial cells+AgNO3; • Bacterial cells+AgSol+antibiotic • Bacterial cells+AgNO3+antibiotic
(§13) Samples were taken after 0, 4, 8, 24 and 48 hours at 37° C. (incubation with shaking). The samples were plated for viable counts, CFU counts normalized to 0 h and plotted as a function of time.

[4] = tested on: gentamicin-resistant P. aeruginosa (DA60255); assay: AgSol-antibiotic synergy screening assay / MIC, gentamicin-resistant strain; type: cell-based, Pseudomonas aeruginosa; settings: AgSol1000 at 0.25×MIC; FIG. 9
[5] = tested on: Staphylococcus aureus USA300 JE2 (DA28823); assay: AgSol-antibiotic synergy screening assay / MIC; type: cell-based; settings: for effect of antibiotic when adding AgSol: S. aureus (USA300 JE2), FIGS. 4 and 5; for MIC: Staphylococcus aureus, USA300, antibiotic alone, S. aureus (DA28823), values used for antibiotic gradient
Description: as §1, §2, §3, §4, §5, §6, §7

[6] = tested on: Staphylococcus aureus USA300 JE2 (DA28823); assay: Time-kill assay; type: cell-based; settings: antibiotic 2×MIC, silver ¼×MIC; FIG. 7A-B
Description: as §8, §9, §10, §11, §12, §13

[7] = tested on: Salmonella enterica Typhimurium LT2; assay: Highly sensitive competition experiments (resistant vs wild type); type: cell-based; settings: 50% sensitive / 50% Streptomycin-resistant bacteria; silver at 0.25×MIC; FIG. 1
Description: as §2

[8] = tested on: S. enterica Typhimurium LT2; assay: AgSol-antibiotic synergy screening assay; type: cell-based, Salmonella enterica; settings: Streptomycin or Rifampicin; FIGS. 2A-2F
Description: as §3, §4, §5, §7

[9] = Escherichia coli, MG1655, antibiotic alone, E. coli (DA4201), values used for antibiotic gradient, read-out: MIC
[10] = Escherichia coli, MG1655, antibiotic alone, nutrient broth, read-out: Antibiotic MIC, NB

| Compound | MIC [1, 9] | MIC [1, 10] | Antibiotic MIC, NB + AgSol1000 ([1]; nutrient broth) | Fold change (antibiotic MIC, NB vs NB + AgSol1000) [1] | further results |
| --- | --- | --- | --- | --- | --- |
| CO[C@H]1/C=C/O[C@@]2(C)Oc3c(C)c(O)c4c(O)c(c(/C=N/N5CCN(C)CC5)c(O)c4c3C2=O)NC(=O)/C(C)=C\C=C\[C@H](C)[C@H](O)[C@@H](C)[C@@H](O)[C@@H](C)[C@H](OC(C)=O)[C@@H]1C [Rifampicin] | 3 µg/mL | 3 µg/mL | 3 µg/mL | – | – |
| NC[C@H]1O[C@H](O[C@H]2[C@H](O)[C@@H](O[C@H]3O[C@H](CO)[C@@H](O)[C@H](N)[C@H]3O)[C@H](N)C[C@@H]2N)[C@H](O)[C@@H](O)[C@@H]1O [Kanamycin] | 0.5 µg/mL | 0.5 µg/mL | 0.12 µg/mL | 4x | – |
| O=C(O)c1cn(C2CC2)c2cc(N3CCNCC3)c(F)cc2c1=O [Ciprofloxacin] | 0.012 µg/mL | 0.012 µg/mL | 0.012 µg/mL | – | – |
| Gentamicin | – | – | 0.03 µg/mL | 17x | synergistic effect of gentamicin in combination with AgSol ([2]; P. aeruginosa (PAO1), FIG. 3): −50%; synergistic anti-bacterial effect of antibiotic in combination with colloidal dispersion ([2]; P. aeruginosa, FIGS. 3, 8, 9): synergistic anti-bacterial effect; MIC ([2]; antibiotic alone, P. aeruginosa (DA6215), values used for antibiotic gradient): 0.375 µg/mL; effect on bacteria (OD620) of combination silver/gentamicin ([2]; gentamicin 0.19 ug/ml with silver): complete killing of bacteria; effect on OD620 of gentamicin alone ([2]; gentamicin 0.19 ug/ml without silver): almost no reduction in OD620; time to almost complete killing (bactericidal effect), gentamicin in combination with AgSol [3]: ≤ 24 h; time-kill: effect of gentamicin in combination with AgSol [3]: no bacterial growth is visible within 48 hours; time-kill: effect of gentamicin in combination with AgSol ([3]; listed as GEN): even stronger bactericidal effect; fold increase in effect with AgSol vs antibiotic alone ([1]; listed as Gentamycin): 17 fold; MIC ([1]; antibiotic alone, E. coli (DA4201), values used for antibiotic gradient): 0.5 µg/mL; Antibiotic MIC, NB ([1]; antibiotic alone, nutrient broth): 0.5 µg/mL; anti-bacterial effect of AgSol and gentamycin on resistant strain [4]: confirmed the anti-bacterial effect |
| CO/N=C(\C(=O)N[C@@H]1C(=O)N2C(C(=O)O)=C(COC(C)=O)CS[C@H]12)c1csc(N)n1 [Cefotaxime] | 0.094 µg/mL | 0.094 µg/mL | 0.047 µg/mL | 2x | – |
| CC(=O)O[C@H]1C[C@@]2(C)[C@@H](C[C@@H](O)[C@H]3[C@@]4(C)CC[C@@H](O)[C@@H](C)[C@@H]4CC[C@@]32C)/C1=C(\CCC=C(C)C)C(=O)O [Fusidic acid] | – | – | – | – | effect of antibiotic when adding AgSol [5]: synergistic anti-bacterial effect; also recorded: there was an effect; MIC [5]: 0.12 µg/mL; time-kill: action of antibiotic in combination with AgSol [6]: bacteriostatic |
| O=[N+]([O-])[O-].[Ag+] [AgNO3, silver nitrate] | – | – | – | – | effect of silver source in combination with Streptomycin [7]: synergistic effect; effect of silver formulation in combination with antibiotics vs silica particles 159/500 and 15/500 [8]: improved effect |
| C/C(=C\C(=O)OCCCCCCCCC(=O)O)C[C@@H]1OC[C@H](C[C@@H]2O[C@H]2[C@@H](C)[C@H](C)O)[C@@H](O)[C@H]1O [Mupirocin] | – | – | – | – | effect of antibiotic when adding AgSol [5]: synergistic anti-bacterial effect; also recorded: there was an effect; MIC [5]: 0.12 µg/mL; time-kill: action of antibiotic in combination with AgSol [6]: bacteriostatic |
| NC[C@H]1O[C@H](O[C@H]2[C@H](O)[C@@H](O[C@H]3O[C@H](CO)[C@@H](O)[C@H](N)[C@H]3O)[C@H](N)C[C@@H]2N)[C@H](N)C[C@@H]1O [Tobramycin] | 0.75 µg/mL | 0.75 µg/mL | 0.047 µg/mL | 16x | fold increase in effect with AgSol vs antibiotic alone [1]: 16 fold |
| CN[C@@H]1[C@H](O)[C@H](NC)[C@H]2O[C@@]3(O)C(=O)C[C@@H](C)O[C@H]3O[C@@H]2[C@H]1O [Spectinomycin] | 12 µg/mL | 12 µg/mL | 6 µg/mL | 2x | – |
| CC1(C)S[C@@H]2[C@H](NC(=O)[C@H](N)c3ccccc3)C(=O)N2[C@H]1C(=O)O [Ampicillin] | 4 µg/mL | 4 µg/mL | 2 µg/mL | 2x | – |
| O=C(N[C@H](CO)[C@H](O)c1ccc([N+](=O)[O-])cc1)C(Cl)Cl [Chloramphenicol] | 3 µg/mL | 3 µg/mL | 1.5 µg/mL | 2x | – |
| CN(C)[C@@H]1C(O)=C(C(N)=O)C(=O)[C@@]2(O)C(O)=C3C(=O)c4c(O)cccc4[C@@](C)(O)[C@H]3C[C@@H]12 [Tetracycline] | 1 µg/mL | 0.5 µg/mL | 0.5 µg/mL | – | – |
| CC[C@H]1OC(=O)[C@H](C)[C@@H](O[C@H]2C[C@@](C)(OC)[C@@H](O)[C@H](C)O2)[C@H](C)[C@@H](O[C@@H]2O[C@H](C)C[C@H](N(C)C)[C@H]2O)[C@](C)(O)C[C@@H](C)C(=O)[C@H](C)[C@@H](O)[C@]1(C)O [Erythromycin] | 48 µg/mL | 48 µg/mL | 48 µg/mL | – | – |
